In the supplement of paper PMC10331698:
± gives the standard deviation of the averaged measurements.

Key:
Experiment in all cases: level (log10 ratio to DMSO vehicle control); higher = higher biomarker level / cell amount than vehicle control
[1] = compound: C=CC(=O)OCCC(F)(F)C(F)(F)C(F)(F)C(F)(F)C(F)(F)C(F)(F)C(F)(F)C(F)(F)F [8:2 Fluorotelomer acrylate]; conditions: in DMSO
Protocol: (§1)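 BioMAP Diversity Plus panel of 12 human primary cell co-culture systems (3C, 4H, LPS, SAg, BT, BF4T, BE3C, CASM3C, HDF3CGF, KF3CT, MyoF, Mphg). Compounds were added 1 h before stimulation and left for 24 h (MyoF 48 h; BT 72 h for soluble read-outs or 6 d for IgG). Biomarkers were read by ELISA, cytotoxicity by SRB, PBMC viability and proliferation by Alamar Blue. Each well value was divided by the mean of 8 DMSO control wells on the same plate and log10 transformed; duplicate blinded samples were tested at 4 concentrations.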

Perfluorooctanoic acid = compound: O=C(O)C(F)(F)C(F)(F)C(F)(F)C(F)(F)C(F)(F)C(F)(F)C(F)(F)F [Perfluorooctanoic acid]; conditions: in DMSO
Protocol: as §1

[2] = compound: FC(F)(I)C(F)(F)C(F)(F)C(F)(F)C(F)(F)C(F)(F)I [1,6-Diiodoperfluorohexane]; conditions: 6700 nM; in DMSO
Protocol: as §1

[3] = compound: O=S(=O)(O)CCC(F)(F)C(F)(F)C(F)(F)C(F)(F)F [4:2 Fluorotelomer sulfonic acid]; conditions: in DMSO
Protocol: as §1

[4] = compound: OCCCCC(F)(F)C(F)(F)C(F)(F)C(F)(F)F [4:4 Fluorotelomer alcohol]; conditions: in DMSO
Protocol: as §1

[5] = compound: O=C(O)C(F)(F)C(F)(F)C(F)(F)C(F)(F)C(F)(F)C(F)(F)C(F)(F)F [Ammonium perfluorooctanoate]; conditions: in DMSO
Protocol: as §1

Methotrexate = compound: CN(Cc1cnc2nc(N)nc(N)c2n1)c1ccc(C(=O)N[C@@H](CCC(=O)O)C(=O)O)cc1 [Methotrexate]; conditions: in DMSO
Protocol: as §1

Test System | level (log10) ([1]; 6700 nM) | level (log10) ([1]; 20000 nM) | level (log10) ([1]; 60000 nM) | level (log10) (Perfluorooctanoic acid; 6700 nM) | level (log10) (Perfluorooctanoic acid; 20000 nM) | level (log10) (Perfluorooctanoic acid; 60000 nM) | level (log10) [2] | level (log10) ([3]; 6700 nM) | level (log10) ([3]; 20000 nM) | level (log10) ([3]; 60000 nM) | level (log10) ([4]; 6700 nM) | level (log10) ([4]; 20000 nM) | level (log10) ([4]; 60000 nM) | level (log10) ([5]; 6700 nM) | level (log10) ([5]; 20000 nM) | level (log10) ([5]; 60000 nM) | level (log10) (Methotrexate; 1500 nM) | level (log10) (Methotrexate; 4400 nM) | level (log10) (Methotrexate; 13000 nM) | level (log10) (Methotrexate; 40000 nM)
CASM3C:SRB | -0.002 | 0.005 ± 0.0099 | 0.0085 ± 0.0064 | -0.005 ± 0.0042 | 0.0005 ± 0.00071 | 0.0095 ± 0.00071 | 0.002 | -0.0045 ± 0.0064 | -0.013 ± 0.0028 | -0.001 ± 0.0028 | -0.0045 ± 0.00071 | 0.0015 ± 0.012 | -0.0025 ± 0.016 | -0.0015 ± 0.00071 | -0.001 ± 0.0099 | -0.0005 ± 0.00071 | 0.001 | -0.0095 ± 0.0064 | -0.0055 ± 0.0035 | -0.0105 ± 0.011
BE3C:tPA | -0.034 ± 0.02 | -0.051 ± 0.0042 | -0.002 ± 0.04 | -0.0515 ± 0.025 | -0.0285 ± 0.036 | -0.038 ± 0.0085 | -0.032 | 0.012 ± 0.013 | -0.0315 ± 0.03 | 0.011 ± 0.05 | -0.0075 ± 0.00071 | -0.013 ± 0.038 | 0.015 ± 0.021 | -0.029 ± 0.045 | -0.015 ± 0.02 | -0.07 ± 0.0085 | 0.012 ± 0.0071 | -0.004 ± 0.075 | 0.0085 ± 0.091 | 0.0215 ± 0.033
BE3C:MMP-9 | -0.027 ± 0.0071 | -0.016 ± 0.0042 | -0.011 ± 0.024 | -0.0185 ± 0.012 | 0.015 ± 0.0028 | 0.079 ± 0.047 | -0.008 | -0.0055 ± 0.005 | -0.0045 ± 0.018 | 0.0135 ± 0.0092 | 0.0035 ± 0.032 | 0.014 ± 0.028 | 0.031 ± 0.045 | -0.0145 ± 0.0064 | 0.047 ± 0.0042 | 0.0375 ± 0.021 | 0.014 ± 0.021 | -0.0025 ± 0.011 | 0.0045 ± 0.079 | 0.0085 ± 0.015
CASM3C:CD142/Tissue Factor | -0.036 ± 0.021 | -0.047 ± 0.05 | -0.0145 ± 0.032 | -0.0055 ± 0.039 | -0.008 ± 0.048 | -0.0345 ± 0.061 | 0.001 | -0.0115 ± 0.018 | 0.0115 ± 0.015 | 0.0095 ± 0.03 | -0.0265 ± 0.015 | -0.0055 ± 0.0064 | 0.0285 ± 0.018 | 0.005 ± 0.028 | -0.009 ± 0.025 | -0.01 ± 0.024 | 0.0505 ± 0.005 | 0.0195 ± 0.049 | 0.0265 ± 0.042 | 0.0305 ± 0.026
KF3CT:TIMP-2 | -0.0125 ± 0.037 | -0.02 | 0.016 ± 0.013 | -0.0195 ± 0.015 | 0.0025 ± 0.016 | 0.035 ± 0.038 | -0.022 | -0.0215 ± 0.023 | -0.0185 ± 0.042 | -0.0025 ± 0.0064 | 0.0135 ± 0.0064 | 0.0075 ± 0.019 | -0.0015 ± 0.015 | -0.006 ± 0.0028 | -0.011 ± 0.018 | 0.0065 ± 0.025 | -0.029 ± 0.035 | -0.034 ± 0.069 | -0.0325 ± 0.06 | -0.0195 ± 0.088
KF3CT:PAI-I | -0.009 ± 0.014 | 0.0155 ± 0.012 | 0.001 ± 0.0085 | 0.0005 ± 0.021 | -0.015 ± 0.02 | -0.079 ± 0.0028 | -0.117 | -0.005 ± 0.0071 | -0.015 ± 0.0014 | -0.0175 ± 0.0064 | -0.012 ± 0.017 | -0.0075 ± 0.013 | -0.009 ± 0.013 | -0.0015 ± 0.0021 | -0.018 ± 0.0099 | -0.01 ± 0.0099 | 0.006 ± 0.014 | -0.036 ± 0.031 | -0.0145 ± 0.025 | -0.007 ± 0.1
lMphg:SRB | -0.003 ± 0.0085 | -0.0105 ± 0.016 | -0.004 ± 0.034 | -0.008 ± 0.0071 | -0.0005 ± 0.005 | 0.011 ± 0.017 | -0.028 | -0.0035 ± 0.00071 | 0.004 ± 0.0042 | -0.001 ± 0.0042 | -0.015 ± 0.0028 | -0.0055 ± 0.0035 | 0.004 ± 0.033 | -0.0125 ± 0.0035 | -0.004 ± 0.0028 | 0.0015 ± 0.005 | 0.0015 ± 0.0064 | -0.0005 ± 0.00071 | -0.002 ± 0.0085 | 0.0055 ± 0.00071
CASM3C:LDLR | -0.008 ± 0.011 | -0.0135 ± 0.011 | -0.002 ± 0.0099 | -0.011 | 0.001 ± 0.013 | 0.004 ± 0.014 | -0.028 | -0.0145 ± 0.012 | 0.0015 ± 0.0021 | -0.0035 ± 0.025 | 0.016 ± 0.0042 | 0.0175 ± 0.022 | 0.03 ± 0.042 | -0.0015 ± 0.018 | 0 ± 0.031 | 0.0085 ± 0.039 | 0.011 ± 0.0042 | 0.0465 ± 0.042 | 0.0205 ± 0.022 | 0.0455 ± 0.066
HDF3CGF:CXCL11/I-TAC | -0.007 ± 0.0057 | -0.0095 ± 0.0021 | -0.0105 ± 0.028 | -0.0205 ± 0.011 | -0.016 ± 0.027 | -0.007 ± 0.024 | -0.434 | -0.0475 ± 0.059 | -0.037 ± 0.064 | -0.089 ± 0.024 | 0.0075 ± 0.0078 | 0.0205 ± 0.0092 | -0.001 ± 0.014 | 0.014 ± 0.0014 | 0.037 ± 0.02 | 0.0555 ± 0.033 | -0.0095 ± 0.013 | -0.0105 ± 0.033 | -0.008 ± 0.023 | -0.018 ± 0.05
MyoF:PAI-I | -0.0055 ± 0.018 | -0.0105 ± 0.015 | -0.0355 ± 0.015 | -0.0225 ± 0.011 | -0.023 ± 0.024 | -0.0305 ± 0.029 | -0.053 | -0.0015 ± 0.00071 | 0.0055 ± 0.0035 | 0.0055 ± 0.012 | 0.0125 ± 0.011 | 0.007 ± 0.011 | 0.0095 ± 0.016 | 0.0095 ± 0.015 | 0.0035 ± 0.013 | 0.027 ± 0.011 | -0.026 ± 0.072 | -0.011 ± 0.035 | 0.0015 ± 0.016 | -0.0185 ± 0.084
KF3CT:IL-1alpha | 0.0005 ± 0.011 | -0.0245 ± 0.00071 | -0.0355 ± 0.04 | 0.018 ± 0.0057 | 0.012 ± 0.0014 | -0.0395 ± 0.0035 | -0.073 | -0.0155 ± 0.0021 | -0.0355 ± 0.0078 | -0.021 ± 0.021 | 0.0145 ± 0.029 | 0.005 ± 0.042 | 0.019 ± 0.03 | -0.0065 ± 0.00071 | -0.026 ± 0.0071 | -0.079 ± 0.025 | -0.0145 ± 0.013 | -0.0225 ± 0.032 | -0.002 ± 0.052 | -0.0145 ± 0.039
lMphg:M-CSF | -0.0195 ± 0.042 | -0.013 ± 0.014 | -0.003 ± 0.016 | -0.007 ± 0.0042 | 0.0105 ± 0.019 | 0.0185 ± 0.029 | -0.023 | -0.0105 ± 0.0078 | -0.024 ± 0.0099 | -0.0175 ± 0.0035 | -0.0185 ± 0.019 | -0.0095 ± 0.0035 | 0.0105 ± 0.042 | -0.018 ± 0.0099 | -0.018 ± 0.037 | 0.0055 ± 0.0021 | -0.03 ± 0.034 | -0.013 ± 0.025 | -0.0295 ± 0.026 | -0.013 ± 0.085
MyoF:SRB | 0 ± 0.0014 | -0.001 ± 0.0028 | -0.0095 ± 0.0092 | 0.0025 ± 0.0035 | 0.0065 ± 0.012 | -0.034 ± 0.0057 | -0.209 | -0.004 ± 0.0071 | -0.0045 ± 0.0021 | -0.004 ± 0.0028 | -0.0025 ± 0.0035 | -0.0065 ± 0.0021 | 0.006 ± 0.017 | 0.0005 ± 0.011 | 0.01 ± 0.011 | -0.048 ± 0.014 | 0.012 ± 0.013 | 0.003 | 0.0125 ± 0.0064 | -0.0005 ± 0.005
